The text below walks through data of patent US9243002B2, “Tetracyclic heterocycle compounds and methods of use thereof for the treatment of hepatitis C” (priority 2013, dated 2016).

One test deals with HCV genotype 1b replicon. The test is described as follows: HCV replicon assay, genotype 1b (cell ELISA for NS3/4A). In kind it is cell-based, hepatitis C virus. The note with it: Hepatitis C virus, 96 h, read-out: 1b IC50 (nM), genotype 1b replicon cells, 96 hours incubation, NS3/4A ELISA. In short, it runs like this:
(§1)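 Stable replicon cells plated with a compound dilution series without G418 and incubated 96 h, then lysed. Replicon RNA measured indirectly by cell ELISA with an NS3/4A-specific antibody. IC50 calculated relative to DMSO control by four-parameter fit.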

The next test deals with HCV genotype 1a replicon. The test is described as follows: HCV replicon assay, genotype 1a (cell ELISA for NS3/4A). Format: cell-based, hepatitis C virus. Conditions: Hepatitis C virus, 96 h, read-out: 1a IC50 (nM), genotype 1a replicon cells, 96 hours incubation, NS3/4A ELISA. In short, it runs like this: as §1
On the technique in general: In antiviral work, replicon cells carry a viral genome segment that copies itself.

The structures appear in SMILES notation.

As to `CNC(=O)c1c(-c2ccc(F)cc2)oc2cc(N(C)S(C)(=O)=O)c(-c3ccc4ccn5c6ccc(OC)nc6cc5c4n3)cc12` [Example 80], the IC50 was 9.77 nM in the test with HCV genotype 1b replicon and 27.7 nM with HCV genotype 1a replicon.
On to `CNC(=O)c1c(-c2ccc(F)cc2)oc2cc(N(C)S(C)(=O)=O)c(-c3ccc4ccn5c6ccc(O)nc6cc5c4n3)cc12` [Example 81], for which the IC50 in the test with HCV genotype 1b replicon stood at 33.9 nM; with HCV genotype 1a replicon, 196 nM.
The corresponding values for `CNC(=O)c1c(-c2ccc(F)cc2)oc2cc(N(C)S(C)(=O)=O)c(-c3ccc4ccn5c6cccc(F)c6cc5c4n3)cc12` [Example 82, 5-(11-fluoroindolo[1,2-h][1,7]naphthyridin-2-yl)-2-(4-fluorophenyl)-N-methyl-6-(N-methylmethylsulfonamido)benzofuran-3-carboxamide] are 5.54 nM and 2.88 nM.
The corresponding values for `CNC(=O)c1c(-c2ccc(F)cc2)oc2cc(N(C)S(C)(=O)=O)c(-c3ccc4ccn5c6cccc(C#N)c6cc5c4n3)cc12` [Example 83] are 3.44 nM and 1.49 nM.
As for `CNC(=O)c1c(-c2ccc(F)cc2F)oc2cc(N(C)S(C)(=O)=O)c(-c3ccc4ccn5c6cccc(F)c6cc5c4n3)cc12` [Example 84], the IC50 in the test on HCV genotype 1b replicon was 6.41 nM; in the test on HCV genotype 1a replicon, 4.28 nM.
The corresponding values for `CNC(=O)c1c(-c2ccc(F)cc2)oc2cc(N(C)S(C)(=O)=O)c(-c3ccc4c(n3)-c3cc5c(F)cccc5n3CC4)cc12` [Example 85, 5-(11-fluoro-5,6-dihydroindolo[1,2-h][1,7]naphthyridin-2-yl)-2-(4-fluorophenyl)-N-methyl-6-(N-methylmethylsulfonamido)benzofuran-3-carboxamide] are 3.29 nM and 2.99 nM.
With `CNC(=O)c1c(-c2ccc(F)cc2)oc2cc(N(C)S(C)(=O)=O)c(-c3ccc4c(n3)-c3cc5c(F)cccc5n3C4O)cc12` (stereo not drawn) [Example 87, 5-(10-fluoro-5-hydroxy-5H-pyrido[2′,3′:3,4]pyrrolo[1,2-a]indol-2-yl)-2-(4-fluorophenyl)-N-methyl-6-(N-methylmethylsulfonamido)benzofuran-3-carboxamide], the IC50 in the test with HCV genotype 1b replicon amounted to 7.29 nM; in the test on HCV genotype 1a replicon, 7.69 nM.
The corresponding values for `CNC(=O)c1c(-c2ccc(F)cc2)oc2cc(N(C)S(C)(=O)=O)c(-c3ccc4c(n3)-c3cc5c(F)cccc5n3C4)cc12` [Example 88, 5-(10-fluoro-5H-pyrido[2′,3′:3,4]pyrrolo[1,2-a]indol-2-yl)-2-(4-fluorophenyl)-N-methyl-6-(N-methylmethylsulfonamido)benzofuran-3-carboxamide] are 9.43 nM and 8.73 nM.
The corresponding values for `CNC(=O)c1c(-c2ccc(F)cc2)oc2cc(N(C)S(C)(=O)=O)c(-c3ccc4c(n3)-c3cc5c(F)cccc5n3CC4F)cc12` (stereo not drawn) [Example 89, 5-(5,11-difluoro-5,6-dihydroindolo[1,2-h][1,7]naphthyridin-2-yl)-2-(4-fluorophenyl)-N-methyl-6-(N-methylmethylsulfonamido)benzofuran-3-carboxamide] are 5.49 nM and 2.12 nM.
The corresponding values for `CNC(=O)c1c(-c2ccc(F)cc2)oc2cc(N(C)S(C)(=O)=O)c(-c3ccc4c(n3)-c3cc5c(F)cccc5n3C(CN3CC(F)C3)C4)cc12` (stereo not drawn) [Example 90, 5-(11-fluoro-6-((3-fluoroazetidin-1-yl)methyl)-5,6-dihydroindolo[1,2-h][1,7]naphthyridin-2-yl)-2-(4-fluorophenyl)-N-methyl-6-(N-methylmethylsulfonamido)benzofuran-3-carboxamide] are 2.79 nM and 7.23 nM.
For `CNC(=O)c1c(-c2ccc(F)cc2)oc2cc(N(C)S(C)(=O)=O)c(-c3ccc4c(n3)-c3cc5c(F)cccc5n3C(CN3CC(F)(F)C3)C4)cc12` (stereo not drawn) [Example 91], the IC50 in the test with HCV genotype 1b replicon was 9.23 nM; in the test on HCV genotype 1a replicon, 27.6 nM.
The corresponding values for `CNC(=O)c1c(-c2ccc(F)cc2)oc2cc(N(C)S(C)(=O)=O)c(-c3ccc4c(n3)-c3cc5c(F)cccc5n3C(CN3CCC3)C4)cc12` (stereo not drawn) [Example 92] are 2.55 nM and 46.5 nM.
The corresponding values for `CNC(=O)c1c(-c2ccc(F)cc2)oc2cc(N(C)S(C)(=O)=O)c(-c3ccc4c(n3)-c3cc5c(F)cccc5n3C(CN3CC[C@@H](F)C3)C4)cc12` (stereo partly drawn) [Example 94] are 10.8 nM and 34 nM.
The corresponding values for `CNC(=O)c1c(-c2ccc(F)cc2F)oc2cc(N(C)S(C)(=O)=O)c(-c3ccc4c(n3)-c3cc5c(F)cccc5n3C(CN3CC(F)C3)C4)cc12` (stereo not drawn) [Example 95] are 7.53 nM and 8.91 nM.
With `CNC(=O)c1c(-c2ccc(F)cc2)oc2cc(N(C)S(C)(=O)=O)c(-c3ccc4c(n3)-c3cc5c(F)cccc5n3C(CF)C4)cc12` (stereo not drawn) [Example 96, 5-(11-fluoro-6-(fluoromethyl)-5,6-dihydroindolo[1,2-h][1,7]naphthyridin-2-yl)-2-(4-fluorophenyl)-N-methyl-6-(N-methylmethylsulfonamido)benzofuran-3-carboxamide], the IC50 in the test with HCV genotype 1b replicon turned out to be 3.18 nM; in the test on HCV genotype 1a replicon, 7.89 nM.
Turning to `CNC(=O)c1c(-c2ccc(F)cc2)oc2cc(N(C)S(C)(=O)=O)c(-c3ccc4c(n3)-c3cc5c(F)cccc5n3CC43CC3)cc12` [Example 97, 5-(11′-fluoro-6′H-spiro[cyclopropane-1,5′-indolo[1,2-h][1,7]naphthyridin]-2′-yl)-2-(4-fluorophenyl)-N-methyl-6-(N-methylmethylsulfonamido)benzofuran-3-carboxamide], the IC50 is 9.98 nM in the test on HCV genotype 1b replicon and 10.7 nM in the test with HCV genotype 1a replicon.
The corresponding values for `CNC(=O)c1c(-c2ccc(F)cc2)oc2cc(N(C)S(C)(=O)=O)c(-c3ccc4c(n3)-c3cc5c(F)cccc5n3CC=C4)cc12` [Example 98, 5-(12-fluoro-7H-pyrido[2′,3′:3,4]azepino[1,2-a]indol-2-yl)-2-(4-fluorophenyl)-N-methyl-6-(N-methylmethylsulfonamido)benzofuran-3-carboxamide] are 8.65 nM and 4.17 nM.
With `CNC(=O)c1c(-c2ccc(F)cc2)oc2cc(N(C)S(C)(=O)=O)c(-c3ccc4c(n3)-c3cc5c(F)cccc5n3CCCC4)cc12` [Example 99, 5-(13-fluoro-5,6,7,8-tetrahydropyrido[2′,3′:3,4]azocino[1,2-a]indol-2-yl)-2-(4-fluorophenyl)-N-methyl-6-(N-methylmethylsulfonamido)benzofuran-3-carboxamide], the IC50 worked out at 7.17 nM in the test with HCV genotype 1b replicon and 6.5 nM in the test on HCV genotype 1a replicon.
